Results taken from ChEMBL document CHEMBL3045587, “Oxidation of di- and polyamines: in vitro effect of amino aldehydes on the vitality of Leishmania promastigotes” (Med Chem Res, 2010).
Active and inactive are the calls of the source. The rule behind the calls is not given here.

Assays:
Format in all cases: functional, organism-based
Leishmania infantum [1] = experiment: Antiparasitic activity against promastigotes of Leishmania infantum MHOM-TN-80-IPT1 assessed as decrease in promastigote vitality at 5 mM by counting chamber
Leishmania infantum [2] = experiment: Antiparasitic activity against promastigotes of Leishmania infantum MHOM-TN-80-IPT1 assessed as decrease in parasite density at 1 to 5 mM measured at 4th and 7th day by microscopic analysis
Leishmania infantum [3] = experiment: Antiparasitic activity against promastigotes of Leishmania infantum MHOM-TN-80-IPT1 assessed as decrease in parasite density up to 3 mM measured at 4th and 7th day by microscopic analysis
Leishmania infantum [4] = experiment: Antiparasitic activity against promastigotes of Leishmania infantum MHOM-TN-80-IPT1 assessed as decrease in parasite density at 1 to 5 mM measured at 4th day by microscopic analysis
Leishmania infantum [5] = experiment: Increase in vitality of Leishmania infantum MHOM-TN-80-IPT1 promastigotes at 1 to 5 mM measured at 7th day by microscopic analysis
Leishmania infantum [6] = experiment: Increase in density of Leishmania infantum MHOM-TN-80-IPT1 promastigotes at 1 to 5 mM measured at 7th day by microscopic analysis
Leishmania infantum [7] = experiment: Antiparasitic activity against promastigotes of Leishmania infantum MHOM-TN-80-IPT1 assessed as decrease in parasite vitality at 1 to 5 mM measured at 4th day by microscopic analysis

SMILES	inhibition (Leishmania infantum [1])	inhibition (Leishmania infantum [2])	inhibition (Leishmania infantum [3])	inhibition (Leishmania infantum [4])	Activity (Leishmania infantum [5])	Activity (Leishmania infantum [6])	inhibition (Leishmania infantum [7])
O=CCCNCCCCNCCC=O	Active	Active	–	–	–	–	–
NCCCNCCCC=O	–	–	Active	–	–	–	–
NCCCC=O	–	–	–	Active	Active	Active	Active
NCCCCC=O	–	–	–	Active	Active	Active	Active
